Experimental data published in PubChem BioAssay (NCI).
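Cells were grown in 96-well plates and exposed to each compound for 48 hours at five concentrations; endpoints were interpolated linearly between bracketing concentrations, or set to the highest concentration if not reached. GI50: concentration for 50% inhibition of growth. TGI is the concentration that stops growth completely.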

Experiments:
Assay in all cases: inhibition of tumour cell growth, NCI panel, 48 h
[1] = system: 786-0 renal
[2] = system: A498 renal
[3] = system: A549 NSCLC
[4] = system: ACHN renal
[5] = system: BT-549 breast
[6] = system: CAKI-1 renal
[7] = system: CCRF-CEM leukemia
[8] = system: COLO 205 colon
[9] = system: DU-145 prostate
[10] = system: EKVX NSCLC
[11] = system: HCC-2998 colon
[12] = system: HCT-116 colon
[13] = system: HCT-15 colon
[14] = system: HL-60(TB) leukemia
[15] = system: HOP-62 NSCLC
[16] = system: HOP-92 NSCLC
[17] = system: HS 578T breast
[18] = system: HT29 colon
[19] = system: IGROV1 ovarian
[20] = system: K-562 leukemia
[21] = system: KM12 colon
[22] = system: LOX IMVI melanoma
[23] = system: M14 melanoma
[24] = system: MALME-3M melanoma
[25] = system: MCF7 breast
[26] = system: MDA-MB-231 breast
[27] = system: MDA-MB-435
[28] = system: MDA-MB-468 breast
[29] = system: MOLT-4 leukemia
[30] = system: NCI-H226 lung
[31] = system: NCI-H23 lung
[32] = system: NCI-H460 lung
[33] = system: NCI-H522 lung
[34] = system: NCI/ADR-RES ovarian
[35] = system: OVCAR-3 ovarian
[36] = system: OVCAR-4 ovarian
[37] = system: OVCAR-5 ovarian
[38] = system: OVCAR-8 ovarian
[39] = system: PC-3 prostate
[40] = system: RPMI-8226 leukemia
[41] = system: RXF 393 renal
[42] = system: SF-268 CNS
[43] = system: SF-295 CNS
[44] = system: SF-539 CNS
[45] = system: SK-MEL-2 melanoma
[46] = system: SK-MEL-28 melanoma
[47] = system: SK-MEL-5 melanoma
[48] = system: SK-OV-3 ovarian
[49] = system: SN12C renal
[50] = system: SNB-19 CNS
[51] = system: SNB-75 CNS
[52] = system: SR leukemia
[53] = system: SW-620 colon
[54] = system: T-47D breast
[55] = system: TK-10 renal
[56] = system: U251 CNS
[57] = system: UACC-257 melanoma
[58] = system: UACC-62 melanoma
[59] = system: UO-31 renal

Question: How did the GI50 [1] turn out when `COc1ccc(CN2[C@@H](C(=O)NCc3ccc(C(=O)NO)cc3)Cc3c([nH]c4ccccc34)[C@@H]2C)cc1` was run?
Answer: 5.15 µM

Question: What about the TGI [1] of the same molecule?
Answer: > 21 µM

Question: What about the GI50 [2] of the same molecule?
Answer: 0.822 µM

Question: And the TGI [2]?
Answer: 6.26 µM

Question: What about the GI50 [3] of the same molecule?
Answer: 4.3 µM

Question: What about the TGI [3] of the same molecule?
Answer: 16.5 µM

Question: And the GI50 [4]?
Answer: 3.67 µM

Question: And the TGI [4]?
Answer: 9.07 µM

Question: What about the GI50 [5] of the same molecule?
Answer: 5.95 µM

Question: What about the TGI [5] of the same molecule?
Answer: 15.6 µM

Question: And the GI50 [6]?
Answer: 2.83 µM

Question: And the TGI [6]?
Answer: 7.86 µM

Question: And the GI50 [7]?
Answer: 1.27 µM

Question: What about the TGI [7] of the same molecule?
Answer: > 21 µM

Question: And the GI50 [8]?
Answer: 3.59 µM

Question: And the TGI [8]?
Answer: 8.33 µM

Question: And the GI50 [9]?
Answer: 4.41 µM

Question: And the TGI [9]?
Answer: 17.8 µM

Question: And the GI50 [10]?
Answer: 2.24 µM

Question: What about the TGI [10] of the same molecule?
Answer: 13.5 µM

Question: What about the GI50 [11] of the same molecule?
Answer: 2.72 µM

Question: What about the TGI [11] of the same molecule?
Answer: 5.81 µM

Question: What about the GI50 [12] of the same molecule?
Answer: 1.47 µM

Question: What about the TGI [12] of the same molecule?
Answer: > 21 µM

Question: What about the GI50 [13] of the same molecule?
Answer: 4.56 µM

Question: And the TGI [13]?
Answer: 19.8 µM

Question: And the GI50 [14]?
Answer: 2.65 µM

Question: And the TGI [14]?
Answer: 15.4 µM

Question: And the GI50 [15]?
Answer: 2.56 µM

Question: What about the TGI [15] of the same molecule?
Answer: 7.92 µM

Question: What about the GI50 [16] of the same molecule?
Answer: 2.2 µM

Question: What about the TGI [16] of the same molecule?
Answer: 6.25 µM

Question: What about the GI50 [17] of the same molecule?
Answer: 1.26 µM

Question: And the TGI [17]?
Answer: 13 µM

Question: What about the GI50 [18] of the same molecule?
Answer: 3.84 µM

Question: And the TGI [18]?
Answer: > 21 µM

Question: What about the GI50 [19] of the same molecule?
Answer: 2.56 µM

Question: And the TGI [19]?
Answer: 5.78 µM

Question: What about the GI50 [20] of the same molecule?
Answer: 1.93 µM

Question: And the TGI [20]?
Answer: > 21 µM

Question: And the GI50 [21]?
Answer: 3.3 µM

Question: What about the TGI [21] of the same molecule?
Answer: 7.85 µM

Question: And the GI50 [22]?
Answer: 3.23 µM

Question: And the TGI [22]?
Answer: 6.3 µM

Question: And the GI50 [23]?
Answer: 4.05 µM

Question: And the TGI [23]?
Answer: > 21 µM

Question: What about the GI50 [24] of the same molecule?
Answer: 0.874 µM

Question: And the TGI [24]?
Answer: 4.86 µM

Question: What about the GI50 [25] of the same molecule?
Answer: 3.02 µM

Question: And the TGI [25]?
Answer: 13.8 µM

Question: And the GI50 [26]?
Answer: 2.67 µM

Question: And the TGI [26]?
Answer: 5.73 µM

Question: What about the GI50 [27] of the same molecule?
Answer: 1.27 µM

Question: What about the TGI [27] of the same molecule?
Answer: 5.56 µM

Question: What about the GI50 [28] of the same molecule?
Answer: 0.861 µM

Question: What about the TGI [28] of the same molecule?
Answer: 4.45 µM

Question: And the GI50 [29]?
Answer: 1.6 µM

Question: And the TGI [29]?
Answer: > 21 µM

Question: And the GI50 [30]?
Answer: 1.98 µM

Question: And the TGI [30]?
Answer: 10.2 µM

Question: What about the GI50 [31] of the same molecule?
Answer: 3.33 µM

Question: And the TGI [31]?
Answer: 7.51 µM

Question: And the GI50 [32]?
Answer: 2.86 µM

Question: What about the TGI [32] of the same molecule?
Answer: 10.6 µM

Question: And the GI50 [33]?
Answer: 1.43 µM

Question: And the TGI [33]?
Answer: 5.35 µM

Question: And the GI50 [34]?
Answer: 8.01 µM

Question: What about the TGI [34] of the same molecule?
Answer: > 21 µM

Question: What about the GI50 [35] of the same molecule?
Answer: 2.51 µM

Question: And the TGI [35]?
Answer: 7.84 µM

Question: What about the GI50 [36] of the same molecule?
Answer: 4.58 µM

Question: And the TGI [36]?
Answer: > 21 µM

Question: And the GI50 [37]?
Answer: 1.43 µM

Question: What about the TGI [37] of the same molecule?
Answer: 8.11 µM

Question: What about the GI50 [38] of the same molecule?
Answer: 2.44 µM

Question: And the TGI [38]?
Answer: 8.91 µM

Question: What about the GI50 [39] of the same molecule?
Answer: 3.02 µM

Question: What about the TGI [39] of the same molecule?
Answer: > 21 µM

Question: What about the GI50 [40] of the same molecule?
Answer: 3.03 µM

Question: And the TGI [40]?
Answer: > 21 µM

Question: And the GI50 [41]?
Answer: 0.724 µM

Question: And the TGI [41]?
Answer: 3.71 µM

Question: What about the GI50 [42] of the same molecule?
Answer: 4.21 µM

Question: And the TGI [42]?
Answer: 11.2 µM

Question: And the GI50 [43]?
Answer: 3.02 µM

Question: And the TGI [43]?
Answer: 6.21 µM

Question: What about the GI50 [44] of the same molecule?
Answer: 2.7 µM

Question: What about the TGI [44] of the same molecule?
Answer: 7.12 µM

Question: And the GI50 [45]?
Answer: 3.32 µM

Question: What about the TGI [45] of the same molecule?
Answer: 7.3 µM

Question: And the GI50 [46]?
Answer: 2.6 µM

Question: What about the TGI [46] of the same molecule?
Answer: 8.76 µM

Question: And the GI50 [47]?
Answer: 2.96 µM

Question: What about the TGI [47] of the same molecule?
Answer: 6.02 µM

Question: And the GI50 [48]?
Answer: 2.58 µM

Question: What about the TGI [48] of the same molecule?
Answer: 6.14 µM

Question: What about the GI50 [49] of the same molecule?
Answer: 3.88 µM

Question: And the TGI [49]?
Answer: 13 µM

Question: And the GI50 [50]?
Answer: 3.49 µM

Question: What about the TGI [50] of the same molecule?
Answer: 8.5 µM

Question: And the GI50 [51]?
Answer: 1.23 µM

Question: And the TGI [51]?
Answer: 7.27 µM

Question: What about the GI50 [52] of the same molecule?
Answer: 0.335 µM

Question: And the TGI [52]?
Answer: > 21 µM

Question: What about the GI50 [53] of the same molecule?
Answer: 2.34 µM

Question: What about the TGI [53] of the same molecule?
Answer: 11.2 µM

Question: What about the GI50 [54] of the same molecule?
Answer: 3.56 µM

Question: And the TGI [54]?
Answer: 12.8 µM

Question: And the GI50 [55]?
Answer: 2.6 µM

Question: What about the TGI [55] of the same molecule?
Answer: 11.4 µM

Question: And the GI50 [56]?
Answer: 2.88 µM

Question: And the TGI [56]?
Answer: 8.88 µM

Question: What about the GI50 [57] of the same molecule?
Answer: 2.19 µM

Question: And the TGI [57]?
Answer: 14.4 µM

Question: And the GI50 [58]?
Answer: 2.08 µM

Question: What about the TGI [58] of the same molecule?
Answer: 5.29 µM

Question: What about the GI50 [59] of the same molecule?
Answer: 2.93 µM

Question: What about the TGI [59] of the same molecule?
Answer: 6.19 µM
